Experimental data as given in ChEMBL document CHEMBL5291721, “A preclinical secondary pharmacology resource illuminates target-adverse drug reaction associations of marketed drugs” (Nat Commun, 2023).

What was measured:
Adenosine receptor A3 = target: T1, Adenosine receptor A3 (Homo sapiens, UniProt P0DMS8)
T1 sequence (P0DMS8 whole entry): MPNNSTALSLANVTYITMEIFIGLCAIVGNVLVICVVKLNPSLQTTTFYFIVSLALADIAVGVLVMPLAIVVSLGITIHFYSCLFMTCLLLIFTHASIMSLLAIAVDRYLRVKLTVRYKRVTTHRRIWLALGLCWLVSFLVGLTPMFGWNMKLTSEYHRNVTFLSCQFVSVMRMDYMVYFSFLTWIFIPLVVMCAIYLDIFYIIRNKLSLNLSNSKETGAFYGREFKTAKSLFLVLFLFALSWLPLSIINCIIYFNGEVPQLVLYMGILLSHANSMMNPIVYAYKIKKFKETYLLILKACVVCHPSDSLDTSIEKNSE

Vasopressin V1a receptor = Vasopressin V1a receptor (Homo sapiens, UniProt P37288)
Estrogen receptor = target: T2, Estrogen receptor (Homo sapiens, UniProt P03372)
T2 sequence (P03372 whole entry): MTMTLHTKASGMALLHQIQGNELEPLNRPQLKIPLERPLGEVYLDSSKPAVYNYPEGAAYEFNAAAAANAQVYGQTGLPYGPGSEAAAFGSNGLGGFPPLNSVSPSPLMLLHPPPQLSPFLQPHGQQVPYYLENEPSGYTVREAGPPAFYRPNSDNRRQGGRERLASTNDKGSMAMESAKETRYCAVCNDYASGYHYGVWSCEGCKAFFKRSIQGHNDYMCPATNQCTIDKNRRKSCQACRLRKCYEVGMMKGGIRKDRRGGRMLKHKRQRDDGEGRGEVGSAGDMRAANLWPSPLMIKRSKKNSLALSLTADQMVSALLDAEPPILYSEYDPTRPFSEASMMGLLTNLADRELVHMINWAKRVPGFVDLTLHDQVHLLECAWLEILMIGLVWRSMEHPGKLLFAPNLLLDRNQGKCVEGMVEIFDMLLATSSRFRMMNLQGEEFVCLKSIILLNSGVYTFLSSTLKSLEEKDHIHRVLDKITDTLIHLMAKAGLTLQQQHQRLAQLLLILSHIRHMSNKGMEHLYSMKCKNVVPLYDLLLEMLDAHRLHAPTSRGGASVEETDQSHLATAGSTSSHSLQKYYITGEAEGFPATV

[1] = target: Gamma-aminobutyric acid receptor subunit alpha-1 (Rattus norvegicus, UniProt P62813)
[2] = target: Glutamate receptor ionotropic, NMDA 1 (Rattus norvegicus, UniProt P35439)
Histamine H1 receptor = Histamine H1 receptor (Homo sapiens, UniProt P35367)
[3] = target: T3, 5-hydroxytryptamine receptor 1A (Homo sapiens, UniProt P08908); type: functional, cell-based
T3 sequence (P08908 whole entry): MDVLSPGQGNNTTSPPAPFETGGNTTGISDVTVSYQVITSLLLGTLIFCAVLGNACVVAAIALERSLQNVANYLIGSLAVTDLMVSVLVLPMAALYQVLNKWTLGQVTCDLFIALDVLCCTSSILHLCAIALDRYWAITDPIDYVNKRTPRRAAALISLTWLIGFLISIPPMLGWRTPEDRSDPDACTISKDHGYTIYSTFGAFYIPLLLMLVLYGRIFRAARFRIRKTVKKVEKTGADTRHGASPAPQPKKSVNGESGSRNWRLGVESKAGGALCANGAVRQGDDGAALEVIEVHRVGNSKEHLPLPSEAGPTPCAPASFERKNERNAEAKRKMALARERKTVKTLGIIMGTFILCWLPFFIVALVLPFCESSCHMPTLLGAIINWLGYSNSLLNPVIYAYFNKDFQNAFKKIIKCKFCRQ

Motilin receptor = Motilin receptor (Homo sapiens, UniProt O43193)
Progesterone receptor = target: T4, Progesterone receptor (Homo sapiens, UniProt P06401); type: functional
T4 sequence (P06401 whole entry): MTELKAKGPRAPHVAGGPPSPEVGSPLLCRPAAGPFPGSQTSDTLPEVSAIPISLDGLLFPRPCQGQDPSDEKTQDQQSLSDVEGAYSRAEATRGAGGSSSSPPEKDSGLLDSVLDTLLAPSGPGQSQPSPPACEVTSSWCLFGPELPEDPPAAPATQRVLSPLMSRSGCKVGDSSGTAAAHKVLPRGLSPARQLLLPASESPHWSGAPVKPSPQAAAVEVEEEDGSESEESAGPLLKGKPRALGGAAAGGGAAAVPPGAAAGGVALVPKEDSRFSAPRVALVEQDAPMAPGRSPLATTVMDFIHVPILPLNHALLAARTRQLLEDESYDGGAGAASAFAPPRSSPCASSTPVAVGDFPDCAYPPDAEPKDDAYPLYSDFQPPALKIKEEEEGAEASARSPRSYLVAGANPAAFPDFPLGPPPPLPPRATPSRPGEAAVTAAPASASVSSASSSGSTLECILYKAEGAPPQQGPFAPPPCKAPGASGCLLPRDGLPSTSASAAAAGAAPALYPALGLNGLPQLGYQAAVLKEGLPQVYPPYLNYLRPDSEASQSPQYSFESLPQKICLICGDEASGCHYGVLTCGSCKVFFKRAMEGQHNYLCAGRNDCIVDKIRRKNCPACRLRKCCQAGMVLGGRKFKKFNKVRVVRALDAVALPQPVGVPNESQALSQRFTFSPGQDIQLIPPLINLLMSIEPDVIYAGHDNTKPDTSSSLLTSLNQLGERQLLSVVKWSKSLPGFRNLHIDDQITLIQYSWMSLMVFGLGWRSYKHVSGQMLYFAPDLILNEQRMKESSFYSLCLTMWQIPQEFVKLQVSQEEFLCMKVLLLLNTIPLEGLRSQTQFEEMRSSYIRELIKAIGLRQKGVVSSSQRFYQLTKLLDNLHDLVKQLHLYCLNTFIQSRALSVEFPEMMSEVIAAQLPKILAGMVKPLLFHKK
Note: assay procedure not described here.

Vasopressin V1a receptor, sequence (P37288 whole entry): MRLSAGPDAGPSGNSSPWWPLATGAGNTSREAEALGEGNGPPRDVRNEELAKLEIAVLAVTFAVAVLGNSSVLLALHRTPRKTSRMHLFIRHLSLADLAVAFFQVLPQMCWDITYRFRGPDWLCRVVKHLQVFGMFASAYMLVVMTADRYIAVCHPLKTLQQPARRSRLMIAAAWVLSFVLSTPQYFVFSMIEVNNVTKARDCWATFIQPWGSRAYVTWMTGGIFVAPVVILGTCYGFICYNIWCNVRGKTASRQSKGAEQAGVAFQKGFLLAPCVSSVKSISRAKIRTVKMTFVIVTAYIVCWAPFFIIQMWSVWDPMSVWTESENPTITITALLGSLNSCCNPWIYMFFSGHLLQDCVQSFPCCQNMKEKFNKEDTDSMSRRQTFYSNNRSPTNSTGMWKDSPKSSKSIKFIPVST
Motilin receptor, sequence (O43193 whole entry): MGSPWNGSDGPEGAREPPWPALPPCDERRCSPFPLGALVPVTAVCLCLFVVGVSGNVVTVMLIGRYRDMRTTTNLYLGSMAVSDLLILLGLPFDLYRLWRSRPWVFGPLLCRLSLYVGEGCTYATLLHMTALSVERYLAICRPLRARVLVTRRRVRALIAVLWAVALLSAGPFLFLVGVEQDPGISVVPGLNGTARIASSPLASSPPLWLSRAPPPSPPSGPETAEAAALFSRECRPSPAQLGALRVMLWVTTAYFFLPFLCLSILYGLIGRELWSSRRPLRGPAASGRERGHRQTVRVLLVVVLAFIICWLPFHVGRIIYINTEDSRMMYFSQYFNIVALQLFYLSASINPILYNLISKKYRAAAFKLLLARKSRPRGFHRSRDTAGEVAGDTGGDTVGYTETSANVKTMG
Histamine H1 receptor, sequence (P35367 whole entry): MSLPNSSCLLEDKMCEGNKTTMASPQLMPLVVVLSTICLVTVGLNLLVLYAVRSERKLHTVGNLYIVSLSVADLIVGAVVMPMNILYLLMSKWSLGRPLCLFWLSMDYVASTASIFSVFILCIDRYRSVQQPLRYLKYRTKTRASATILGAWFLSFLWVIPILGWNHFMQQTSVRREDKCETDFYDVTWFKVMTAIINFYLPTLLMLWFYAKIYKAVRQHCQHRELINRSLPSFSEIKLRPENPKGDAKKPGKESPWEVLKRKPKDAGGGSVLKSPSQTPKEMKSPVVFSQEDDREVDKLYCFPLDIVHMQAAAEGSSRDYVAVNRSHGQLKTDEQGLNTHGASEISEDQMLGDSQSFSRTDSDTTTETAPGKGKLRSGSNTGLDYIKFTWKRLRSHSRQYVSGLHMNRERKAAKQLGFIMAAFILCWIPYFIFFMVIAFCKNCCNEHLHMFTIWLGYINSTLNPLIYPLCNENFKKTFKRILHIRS
Gamma-aminobutyric acid receptor subunit alpha-1, sequence (P62813 whole entry): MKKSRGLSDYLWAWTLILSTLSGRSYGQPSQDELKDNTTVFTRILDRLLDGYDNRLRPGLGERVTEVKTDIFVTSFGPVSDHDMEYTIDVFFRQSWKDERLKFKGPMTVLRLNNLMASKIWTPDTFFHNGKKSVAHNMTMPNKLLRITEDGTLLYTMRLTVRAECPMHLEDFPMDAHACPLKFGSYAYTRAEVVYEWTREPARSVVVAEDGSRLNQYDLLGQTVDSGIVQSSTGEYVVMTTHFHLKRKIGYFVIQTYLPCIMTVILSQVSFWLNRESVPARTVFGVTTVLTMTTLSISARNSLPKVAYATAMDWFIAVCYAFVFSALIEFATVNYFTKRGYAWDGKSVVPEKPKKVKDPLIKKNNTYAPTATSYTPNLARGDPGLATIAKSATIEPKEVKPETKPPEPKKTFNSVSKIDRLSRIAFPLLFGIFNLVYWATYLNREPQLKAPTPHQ

| Structure (SMILES) | AC50 (Adenosine receptor A3) | AC50 (Vasopressin V1a receptor) | AC50 (Estrogen receptor) | AC50 [1] | AC50 [2] | AC50 (Histamine H1 receptor) | AC50 [3] | AC50 (Motilin receptor) | AC50 (Progesterone receptor) |
| --- | --- | --- | --- | --- | --- | --- | --- | --- | --- |
| CCOC(=O)[C@H](CCc1ccccc1)N[C@@H](C)C(=O)N1C(=O)N(C)C[C@H]1C(=O)O | > 30 µM | > 30 µM | > 30 µM | > 30 µM | > 30 µM | > 30 µM | > 30 µM | > 30 µM | > 30 µM |
| CC(C)(C)C(=O)Oc1ccc(S(=O)(=O)Nc2ccccc2C(=O)NCC(=O)O)cc1 | > 30 µM | > 30 µM | > 30 µM | > 30 µM | > 30 µM | > 30 µM | > 30 µM | > 30 µM | > 30 µM |
| NCC[C@H](O)C(=O)N[C@@H]1C[C@H](N)[C@@H](O[C@H]2O[C@H](CN)[C@@H](O)[C@H](O)[C@H]2O)[C@H](O)[C@H]1O[C@H]1O[C@H](CO)[C@@H](O)[C@H](N)[C@H]1O [AMIKACIN] | > 10 µM | – | > 10 µM | > 10 µM | > 10 µM | – | > 10 µM | > 10 µM | > 10 µM |
| O=C(O)CCCCCCNC1c2ccccc2CCc2ccccc21 [AMINEPTINE] | > 30 µM | > 30 µM | > 30 µM | > 30 µM | > 30 µM | > 30 µM | > 30 µM | > 30 µM | > 30 µM |
| COc1ccccc1OCCNCC(O)c1ccc(C)c(S(N)(=O)=O)c1 (centres undefined) [AMOSULALOL] | > 30 µM | > 30 µM | > 30 µM | > 30 µM | > 30 µM | 16 µM | 0.16 µM | > 30 µM | > 30 µM |
| C=CCC1(CC(C)C)C(=O)NC(=O)NC1=O [BUTALBITAL] | > 10 µM | > 10 µM | > 10 µM | > 10 µM | > 10 µM | > 30 µM | > 10 µM | > 10 µM | > 10 µM |
| Cc1cc(O)c(C(=O)N[C@@H](C(=O)N[C@@H]2C(=O)N3C(C(=O)O)=C(CSc4nnnn4C)CS[C@H]23)c2ccc(O)cc2)cn1 [CEFPIRAMIDE] | > 30 µM | > 30 µM | > 30 µM | > 30 µM | > 30 µM | > 30 µM | > 30 µM | > 30 µM | > 30 µM |
| Nc1nc(/C(=C/CC(=O)O)C(=O)N[C@@H]2C(=O)N3C(C(=O)O)=CCS[C@H]23)cs1 [CEFTIBUTEN] | > 30 µM | > 30 µM | > 30 µM | > 30 µM | > 30 µM | > 30 µM | > 30 µM | > 30 µM | > 30 µM |
| Cc1ccc(S(=O)(=O)NC(=O)NN2CC3CCCC3C2)cc1 (centres undefined) [GLICLAZIDE] | > 10 µM | – | > 10 µM | > 10 µM | > 10 µM | – | > 10 µM | > 10 µM | > 10 µM |
| CC(C)Cn1cnc2c(N)nc3ccccc3c21 [IMIQUIMOD] | > 30 µM | – | > 10 µM | > 10 µM | > 10 µM | – | > 10 µM | > 10 µM | > 10 µM |
| CCC(C(=O)O)c1ccc(N2Cc3ccccc3C2=O)cc1 (centres undefined) [INDOBUFEN] | > 30 µM | > 30 µM | > 30 µM | > 30 µM | > 30 µM | > 30 µM | 1.9 µM | > 30 µM | > 30 µM |
| CO[C@@H]1[C@@H](O[C@@H]2O[C@H](C)[C@@H](O[C@H]3C[C@@](C)(O)[C@@H](OC(=O)CC(C)C)[C@H](C)O3)[C@H](N(C)C)[C@H]2O)[C@@H](CC=O)C[C@@H](C)[C@@H](O)/C=C/C=C/C[C@@H](C)OC(=O)C[C@H]1OC(C)=O [JOSAMYCIN] | > 10 µM | > 10 µM | > 10 µM | > 10 µM | > 10 µM | > 10 µM | > 10 µM | > 10 µM | > 10 µM |
| CC(C)OC(=O)CCC/C=C\C[C@@H]1[C@@H](CC[C@@H](O)CCc2ccccc2)[C@H](O)C[C@@H]1O [LATANOPROST] | > 30 µM | > 30 µM | > 30 µM | > 30 µM | > 30 µM | > 30 µM | > 30 µM | > 30 µM | > 30 µM |
| CC(C)=CCC/C(C)=C/C=C/C(C)=C/C=C/C(C)=C/C=C/C=C(C)/C=C/C=C(C)/C=C/C=C(\C)CCC=C(C)C [LYCOPENE] | > 30 µM | > 30 µM | > 10 µM | > 30 µM | > 30 µM | > 30 µM | – | > 30 µM | 6.2 µM |
| CCOC(=O)[N-]c1cn(N2CCOCC2)n[o+]1 [MOLSIDOMINE] | > 30 µM | > 30 µM | > 30 µM | > 30 µM | > 30 µM | > 30 µM | – | > 30 µM | > 30 µM |
| OC(CNCC(O)C1CCc2cc(F)ccc2O1)C1CCc2cc(F)ccc2O1 (centres undefined) [NEBIVOLOL] | 19 µM | > 30 µM | > 30 µM | > 30 µM | > 30 µM | > 30 µM | – | 21 µM | > 30 µM |
| COc1ccc2c3c1O[C@H]1C(=O)CC[C@@]4(O)[C@@H](C2)N(C)CC[C@]314 [OXYCODONE] | > 30 µM | > 30 µM | > 30 µM | > 30 µM | > 30 µM | > 30 µM | – | > 30 µM | > 30 µM |
| CCCC(C)C1(CC)C(=O)NC(=O)NC1=O (centres undefined) [PENTOBARBITAL] | > 10 µM | > 10 µM | > 10 µM | – | > 10 µM | > 30 µM | > 10 µM | > 10 µM | > 10 µM |
| CC(CC(c1ccccc1)c1ccccc1)NC(C)(C)C (centres undefined) [TERODILINE] | > 30 µM | > 30 µM | > 30 µM | > 30 µM | > 30 µM | 0.76 µM | – | > 30 µM | > 30 µM |
